Assays:
[1] = Pharmacokinetic profile in mice; assay type: in vivo
Protocol: VSP-77 was further evaluated for its preliminary pharmacokinetic profile in mice following oral (10 mg kg^–1) and intravenous (5 mg kg^–1) administration (Table S2 ^†).

full-length hPPARγ = biological target: T1, full-length hPPARγ (Homo sapiens, UniProt P37231); test: PPARγ-activated luciferase reporter (transactivation) assay in Cos-7 cells; assay type: cell-based; conditions: at 33 μM and 100 μM
T1 construct: 50 ng of full-length hPPARγ plasmids; expressed in transfected cells; host or cells: Cos-7 cells (ATCC)
T1 sequence (P37231 1-505): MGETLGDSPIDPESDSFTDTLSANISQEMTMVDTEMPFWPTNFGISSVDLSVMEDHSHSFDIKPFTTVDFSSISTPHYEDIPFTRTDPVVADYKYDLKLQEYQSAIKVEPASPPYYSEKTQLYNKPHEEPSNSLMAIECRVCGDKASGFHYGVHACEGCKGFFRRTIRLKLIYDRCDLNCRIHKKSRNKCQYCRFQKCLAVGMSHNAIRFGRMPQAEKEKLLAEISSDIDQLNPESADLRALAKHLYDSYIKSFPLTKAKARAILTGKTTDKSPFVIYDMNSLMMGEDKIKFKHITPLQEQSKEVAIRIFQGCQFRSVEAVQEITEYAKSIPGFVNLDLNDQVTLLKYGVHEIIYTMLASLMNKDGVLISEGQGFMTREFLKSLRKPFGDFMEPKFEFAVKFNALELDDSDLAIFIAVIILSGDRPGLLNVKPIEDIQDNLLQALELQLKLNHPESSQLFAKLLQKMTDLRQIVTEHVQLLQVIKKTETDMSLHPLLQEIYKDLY
Protocol: Fig. 3 Luciferase reporter assay of PPARγ activation in Cos-7 cells. The luciferase activity was normalized against renilla luciferase units. Fold activation was calculated against DMSO with no ligand treatment. […] Concentration is represented as log10 scale (n = 3, error bars = SEM). […]
and 25 mM of imidazole) per 6 liters of cells, and passed three times through a French press with pressure set at […]. The lysate was cleared by centrifugation at 48,000 x g for 30 minutes and the supernatant was purified by loading on 2x5 mL HiLoad Nickel HP columns (GE Healthcare). The 6×His SUMO tag was removed by cleavage with the Sumo protease Ulp1 at a protease: protein ratio of 1:1000), and the tag was separated from the PPARγ LBD by a second pass through the Nickel column. PPARγ monomer was further purified by gel filtration (HiLoad 26/60 Superdex 200 (GE Healthcare)) with 20 mM of Tris (pH 8.0), 100 mM of NaCl, and 5 mM of DTT as buffer. The PPARγ LBD protein was complexed with PGC1α1 peptide […]
([…]) at a 1:1.2 molar ratio and with compound at a 1:5 molar ratio and then filter-concentrated to 10 mg/mL.
Cell-based transactivation assay […]
Excitation of the terbium at 340 nm results in FRET to the fluorescent tracer, with emissions detected at 520 nm and 495 nm. […]
The inhibition constant (ki) for a competitor was calculated by applying the […]

[2] = mouse, in vivo, intravenous 5 mg/kg
[3] = mouse, in vivo, oral (ig) 10 mg/kg
[4] = oral 10 mg/kg, unit as printed in main text

Compound: CCCCCCCC(OCC(=O)O)c1ccc(Cl)cc1 (centres unmarked) [VSP-77]
- AUC(0-inf) [1, 2]: 5030 ng·h/mL
- AUC(0-t) [1, 2]: 5000 ng·h/mL
- MRT [1, 2]: 1.11 h
- half-life [1, 2]: 1.07 h
- AUC(0-inf) [1, 3]: 5880 ng·h/mL
- AUC(0-t) [1, 3]: 5770 ng·h/mL
- Cmax [1, 3]: 2920 ng/mL
- MRT [1, 3]: 1.94 h
- Tmax [1, 3]: 0.5 h
- half-life [1, 3]: 1.25 h
- bioavailability ([1]; mouse, in vivo, oral (ig) 10 mg/kg vs iv 5 mg/kg, read-out: F (oral bioavailability)): 57.7%
- AUC0–t [1, 4]: 5772 ng mL^–1 h^–1
- AUC0–∞ [1, 4]: 5877 ng mL^–1 h^–1
- agonistic activity (fold activation of luciferase reporter) (full-length hPPARγ): weakly agonistic

Reference: article PMC7059199, “Identification and structural insight of an effective PPARγ modulator with improved therapeutic index for anti-diabetic drug discovery” (Chemical Science, 2020)
